Here are results for two compounds from paper PMC7611204 (Molecular cancer therapeutics, 2020).

One may read the IC50 as the concentration that gives 50% inhibition. The low end stands for greater potency in that assay, the high end for weaker potency in that assay. In general, Kd refers to a measure of binding affinity in units of concentration.

Structures are written as SMILES.

Test [1] deals with T1, phosphoglycerate dehydrogenase (PHGDH) (Homo sapiens, UniProt O43175).
T1 sequence (O43175 2-533): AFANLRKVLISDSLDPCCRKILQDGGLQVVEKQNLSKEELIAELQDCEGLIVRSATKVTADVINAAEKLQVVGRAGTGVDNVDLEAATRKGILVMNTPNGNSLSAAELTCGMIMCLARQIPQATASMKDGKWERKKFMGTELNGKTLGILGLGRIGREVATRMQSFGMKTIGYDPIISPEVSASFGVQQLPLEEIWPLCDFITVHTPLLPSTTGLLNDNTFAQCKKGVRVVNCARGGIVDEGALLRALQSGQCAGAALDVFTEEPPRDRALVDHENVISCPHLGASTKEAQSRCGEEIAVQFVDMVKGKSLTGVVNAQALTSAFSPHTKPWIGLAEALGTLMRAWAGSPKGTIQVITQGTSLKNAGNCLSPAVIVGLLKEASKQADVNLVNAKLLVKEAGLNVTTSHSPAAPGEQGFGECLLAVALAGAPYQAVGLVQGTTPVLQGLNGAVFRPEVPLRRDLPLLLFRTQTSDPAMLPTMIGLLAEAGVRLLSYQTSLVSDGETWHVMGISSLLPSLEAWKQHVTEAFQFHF

Test [2] has as its target T2, serine hydroxymethyltransferase 2 (SHMT2) (Homo sapiens, UniProt P34897).
T2 sequence (P34897 30-504): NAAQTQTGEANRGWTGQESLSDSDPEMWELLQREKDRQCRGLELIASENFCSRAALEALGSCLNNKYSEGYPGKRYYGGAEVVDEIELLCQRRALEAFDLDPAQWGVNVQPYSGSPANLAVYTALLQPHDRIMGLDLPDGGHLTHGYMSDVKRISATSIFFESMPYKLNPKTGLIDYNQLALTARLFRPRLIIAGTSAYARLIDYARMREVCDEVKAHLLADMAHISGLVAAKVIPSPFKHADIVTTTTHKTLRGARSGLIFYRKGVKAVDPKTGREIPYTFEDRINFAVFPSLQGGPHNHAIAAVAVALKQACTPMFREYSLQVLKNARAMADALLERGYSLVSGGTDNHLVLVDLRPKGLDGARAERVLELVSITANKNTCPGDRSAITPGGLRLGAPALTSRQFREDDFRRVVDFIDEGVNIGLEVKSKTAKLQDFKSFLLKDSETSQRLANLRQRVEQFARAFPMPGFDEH
The experiment in a line: microscale thermophoresis with labeled recombinant human SHMT2. Format: binding. (Microscale thermophoresis detects binding through changes in fluorescence in a small temperature gradient.)

The compound `C[CH2][Hg][S]c1ccccc1C(=O)O` [thimerosal] came in with an IC50 in test [1] of 0.152 µM.
Regarding `CN[C@H]1CC[C@@H](c2ccc(Cl)c(Cl)c2)c2ccccc21` [sertraline], in test [2], the Kd amounted to 13.1 µM.
